The test concerns the target T1, aromatase (Callithrix jacchus, UniProt Q95M61).
T1 construct: gene CYP19A1; microsomal fraction of marmoset placenta
T1 sequence (Q95M61 1-503): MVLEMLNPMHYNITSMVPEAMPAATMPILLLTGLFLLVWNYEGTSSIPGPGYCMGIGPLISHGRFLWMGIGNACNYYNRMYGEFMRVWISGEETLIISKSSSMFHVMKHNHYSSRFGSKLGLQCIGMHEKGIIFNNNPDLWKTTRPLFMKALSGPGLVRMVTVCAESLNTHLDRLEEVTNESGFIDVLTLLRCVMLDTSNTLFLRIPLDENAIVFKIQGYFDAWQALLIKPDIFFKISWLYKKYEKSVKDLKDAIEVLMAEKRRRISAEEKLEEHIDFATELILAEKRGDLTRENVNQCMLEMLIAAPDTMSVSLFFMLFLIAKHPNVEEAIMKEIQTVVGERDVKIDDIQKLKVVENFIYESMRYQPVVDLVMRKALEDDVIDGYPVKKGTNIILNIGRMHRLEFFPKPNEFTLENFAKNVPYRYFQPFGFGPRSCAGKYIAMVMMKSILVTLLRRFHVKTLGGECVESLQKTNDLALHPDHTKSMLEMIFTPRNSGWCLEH
Description: inhibition of [[…]-14C]testosterone conversion by placental microsomes, TLC autoradiography. Type of test: biochemical.

Broadly, the IC50 is the concentration that inhibits the measured activity by half. A higher IC50 goes with lower potency. In the case of `Cc1ccc(CN(c2ccc(C#N)cc2)n2cnnc2)cc1` [cetrozole], the IC50 came out at 0.98 nM. That is a sub-nanomolar value.
`Cc1ccc(CN(c2ccc(C#N)cc2)n2cncn2)cc1` [iso-cetrozole] registered an IC50 of 0.68 nM.
The result for `Cc1cccc(CN(c2ccc(C#N)cc2)n2cnnc2)c1` [meta-cetrozole] reads 3.5 nM; that for `Cc1ccc(CN(c2ccc([N+](=O)[O-])cc2)n2cnnc2)cc1` [nitro-cetrozole], 0.73 nM.
